Results published in patent US20050069541A1, “Composition for and treatment of demyelinating diseases and paralysis by administration of remyelinating agents” (priority 2003, published 2005).

How the values were obtained:
α4 integrin = α4 integrin (Homo sapiens, UniProt P05556+P13612); assay: Inhibition of cell adhesion to VCAM; format: cell-based, human and guinea pig; conditions: human and guinea pig integrin; read-out: IC50 for inhibition of cell adhesion to VCAM
[1] = Receptor-saturating levels of compound maintained in dosed EAE guinea pigs; format: in vivo; conditions: 30 mg/kg twice a day, subcutaneously, guinea pig
Procedure: Treatment Regimes. N-[N-(3-pyridinesulfonyl)-L-3,3-dimethyl-4-thiaprolyl]-O-[1-methylpiperazin-4-ylcarbonyl]-L-tyrosine isopropyl ester is a small molecule that binds with high affinity to human and guinea pig 4 integrin (IC50 for inhibition of cell adhesion to VCAM=1 nm). Disease in animals was considered chronic by day 40 post immunization, and thus the treatment period began at this time, and lasted for 10, 20, 30 or 40 days. Animals received either 0.5 mL saline (vehicle for N-[N-(3-pyridinesulfonyl)-L-3,3-dimethyl-4-thiaprolyl]-O-[1-methylpiperazin-4-ylcarbonyl]-L-tyrosine isopropyl ester; n=20) or 30 mg/kg N-[N-(3-pyridinesulfonyl)-L-3,3-dimethyl-4-thiaprolyl]-O-[1-methylpiperazin-4-ylcarbonyl]-L-tyrosine isopropyl ester (n=25) twice a day. With the dosing regimen, receptor saturation levels of N-[N-(3-pyridinesulfonyl)-L-3,3-dimethyl-4-thiaprolyl]-O-[1-methylpiperazin-4-ylcarbonyl]-L-tyrosine isopropyl ester (>10 nm) were maintained at all times. One subgroup of animals received N-[N-(3-pyridinesulfonyl)-L-3,3-dimethyl-4-thiaprolyl]-O-[1-methylpiperazin-4-ylcarbonyl]-L-tyrosine isopropyl ester for 30 days, and then treatment was withdrawn and the animals were maintained for an additional 10 days (n=5). All treatments were administered subcutaneously.
Treatment Regimes. Animals that met both treatment criteria were treated for intervals of 10, 20, 30 or 40 days. […]

[2] = test system: α4 integrin on circulating lymphocytes and monocytes; assay: Chronic EAE: FACS analysis of α4 integrin on circulating cells, day 80; format: in vivo, guinea pig
Procedure: FACS Analysis. On day 80 post-immunization, heparinized blood samples were collected from non-EAE animals, saline-treated animals, N-[N-(3-pyridinesulfonyl)-L-3,3-dimethyl-4-thiaprolyl]-O-[1-methylpiperazin-4-ylcarbonyl]-L-tyrosine isopropyl ester-treated animals and animals 10 days following withdrawal of N-[N-(3-pyridinesulfonyl)-L-3,3-dimethyl-4-thiaprolyl]-O-[1-methylpiperazin-4-ylcarbonyl]-L-tyrosine isopropyl ester. All samples were maintained at 4° C. for all procedures. 150 μl samples were exposed to primary antibody for 30 minutes, washed twice, and then incubated with PE-conjugated goat anti-mouse IgG Fc in the presence of 5% guinea pig serum (Beckman Coulter #PN EM055 1). Red blood cells were lysed with Becton-Dickinson lysing solution and the samples were examined on a FACScan flow cytometer (Becton Dickinson, Mountain View, Calif.) gating on different cell populations by light scatter.

[3] = test system: spinal cord lesions of paralyzed EAE guinea pigs; assay: Example 2: spontaneous remyelination in chronic EAE (SCR, toluidine blue, EM, lesion area analysis, motor function); format: in vivo, guinea pig

α4 integrin, sequence (P13612 34-1032): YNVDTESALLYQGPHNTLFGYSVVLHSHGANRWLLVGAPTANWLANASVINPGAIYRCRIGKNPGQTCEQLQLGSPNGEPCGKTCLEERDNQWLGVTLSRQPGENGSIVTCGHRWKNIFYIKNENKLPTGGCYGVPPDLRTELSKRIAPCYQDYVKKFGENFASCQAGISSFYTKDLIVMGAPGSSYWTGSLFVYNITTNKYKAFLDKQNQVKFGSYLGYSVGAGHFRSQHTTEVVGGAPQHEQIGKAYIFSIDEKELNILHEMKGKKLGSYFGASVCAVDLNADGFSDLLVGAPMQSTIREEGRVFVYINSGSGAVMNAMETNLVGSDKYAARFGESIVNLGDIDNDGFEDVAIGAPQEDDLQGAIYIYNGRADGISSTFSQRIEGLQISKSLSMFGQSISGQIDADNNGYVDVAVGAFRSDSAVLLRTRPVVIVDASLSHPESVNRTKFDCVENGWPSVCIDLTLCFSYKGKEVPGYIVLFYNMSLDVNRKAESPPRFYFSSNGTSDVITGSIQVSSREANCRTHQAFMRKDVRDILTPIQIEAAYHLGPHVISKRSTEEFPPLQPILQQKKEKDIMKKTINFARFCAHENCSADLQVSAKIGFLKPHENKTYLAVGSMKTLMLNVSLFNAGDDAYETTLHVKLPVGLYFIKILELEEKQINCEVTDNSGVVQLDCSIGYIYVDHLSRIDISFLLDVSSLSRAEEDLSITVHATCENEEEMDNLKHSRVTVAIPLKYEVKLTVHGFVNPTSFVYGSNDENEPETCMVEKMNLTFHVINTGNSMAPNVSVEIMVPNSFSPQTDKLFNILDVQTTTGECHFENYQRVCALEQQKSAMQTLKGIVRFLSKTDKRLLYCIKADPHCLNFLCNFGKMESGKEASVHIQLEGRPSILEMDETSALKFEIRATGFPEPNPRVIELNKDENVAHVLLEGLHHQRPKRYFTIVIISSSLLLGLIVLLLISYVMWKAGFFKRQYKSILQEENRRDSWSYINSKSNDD
α4 integrin, sequence (P05556 21-798): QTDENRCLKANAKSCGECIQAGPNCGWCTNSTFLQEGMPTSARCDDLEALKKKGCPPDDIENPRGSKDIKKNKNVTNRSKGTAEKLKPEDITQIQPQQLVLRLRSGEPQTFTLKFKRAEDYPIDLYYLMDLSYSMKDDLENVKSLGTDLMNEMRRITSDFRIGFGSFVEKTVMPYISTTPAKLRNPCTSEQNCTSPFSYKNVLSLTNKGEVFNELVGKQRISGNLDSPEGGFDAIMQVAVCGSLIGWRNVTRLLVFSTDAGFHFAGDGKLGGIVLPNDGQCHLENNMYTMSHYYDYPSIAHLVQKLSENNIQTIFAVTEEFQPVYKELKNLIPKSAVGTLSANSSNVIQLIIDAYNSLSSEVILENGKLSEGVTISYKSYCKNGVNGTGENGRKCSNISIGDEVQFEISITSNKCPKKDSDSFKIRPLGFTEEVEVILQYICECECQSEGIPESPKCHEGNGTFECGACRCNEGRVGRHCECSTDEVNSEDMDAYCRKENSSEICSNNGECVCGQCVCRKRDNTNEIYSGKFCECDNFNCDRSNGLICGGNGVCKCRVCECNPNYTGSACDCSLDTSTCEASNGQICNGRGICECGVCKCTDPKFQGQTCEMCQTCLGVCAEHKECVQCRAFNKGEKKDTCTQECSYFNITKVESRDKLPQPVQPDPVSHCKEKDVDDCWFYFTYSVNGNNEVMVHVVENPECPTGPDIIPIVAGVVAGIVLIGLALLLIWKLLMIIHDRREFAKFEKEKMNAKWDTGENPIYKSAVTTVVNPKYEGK

SMILES: CC(C)OC(=O)[C@H](Cc1ccc(OC(=O)N2CCN(C)CC2)cc1)NC(=O)[C@H]1N(S(=O)(=O)c2cccnc2)CSC1(C)C [N-[N-(3-pyridinesulfonyl)-L-3,3-dimethyl-4-thiaprolyl]-O-[1-methylpiperazin-4-ylcarbonyl]-L-tyrosine isopropyl ester]
- IC50 (α4 integrin): 1 nM
- receptor saturation levels maintained at all times [1]: > 10 nm
- percentage of α4 integrin bright lymphocytes in the circulation after removal of compound ([2]; 10 days after withdrawal): returned to saline-treated levels
- increase of α4 integrin expression on circulating monocytes in EAE ([2]; day 80): not affected
- α4 integrin bright lymphocytes in the circulation versus saline ([2]; day 80 post immunization): large increase
- myelin repair, share of the total lesion area ([3]; 30 mg/kg twice daily s.c.): 50%
- SCR-stained spinal cord after 10 days of treatment ([3]; 10 days): minimal evidence of myelin pallor
- SCR-stained spinal cord lesions after 20 days of treatment ([3]; 20 days): many lesions exhibited diffuse pale blue staining
- SCR-stained spinal cord lesions after 40 days of treatment ([3]; 40 days): presented as shadow plaques
- plaques showing evidence of remyelination ([3]; after 40 days of treatment, 30 mg/kg twice daily s.c.): 87%
- semithin and EM sections of lesions ([3]; day 30 of treatment): multiple thin myelin layers around large caliber axons
- animals that regained motor function ([3]; paralyzed guinea pigs, clinical score 2 at start): 50%
